Where two headings read alike, the source gives them in different places.
How the values were obtained:
[1] = tested on: HSPCs; assay: Mobilization of HSPCs into peripheral blood (CFU-HPC assay); format: in vivo, mice; details: for effect on HSPC mobilization induced by 4 day beta 3 adrenergic agonist and CXCR4 antagonist: inhibitor or antagonist given 60 minutes prior to BRL 37344, once daily for 4 days; for level of HSPC mobilization: 3 day pre-treatment with one agonist alone, beta 3 agonist and CXCR4 antagonist on day 4; for priming of HSPCs for mobilization: 4 day pre-treatment, CB1 and CB2 agonists in combination, even with FAAH inhibitor
Protocol: (§1) Mice were administered the β-adrenergic agonists isoproterenol (10 mg/kg i.p.), clenbuterol (5 mg/kg i.p.) and BRL 37344 (10 mg/kg i.p.), the cannabinoid receptor agonists ACEA (10 mg/kg i.p.) and GP1a (5 mg/kg i.p.), or vehicle either on 4 consecutive days or 2 hours prior to the cull. 1 hour after the last injection, mice were administered the CXCR4 antagonist AMD3100 (5 mg/kg i.p.) or vehicle. 1 hour later their blood was collected via cardiac puncture for enumeration of circulating CFU-HPCs and CFU-Fs. Mice were administered murine G-CSF (100 μg/kg i.p.) or vehicle on 4 consecutive days. On day 5, blood was collected via cardiac puncture for enumeration of circulating HSPCs.
(§2) Harvested peripheral blood or perfusate was red blood cell-lysed and 1×10^5 cells were added to tissue culture-treated petri dishes containing 1 ml of Methocult™ (M3434; StemCell Technologies) to select for CFU-HPCs. Cultures were incubated at 37° C. and quantified on day 12. Similarly, 1×10^6 bone marrow cells harvested by bone marrow flush of the hind limb femur were plated for CFU-HPCs.

[2] = tested on: CFU-Fs (MSPCs); assay: Mobilization of MSPCs into peripheral blood (CFU-F assay); format: in vivo, mice; details: for priming of MSCs for mobilization: 4 day pre-treatment, CB1 and CB2 agonists in combination, even with FAAH inhibitor
[3] = tested on: total white blood cells; details: CXCR4 antagonist alone
Protocol: as §1

[4] = tested on: HPCs; assay: In situ perfusion of mouse hind limb, CFU-HPCs in perfusate; format: in vivo, mice
Protocol: (§3) Mice were administered BRL 37344 (10 mg/kg i.p.) or vehicle on 4 consecutive days. 1 hour after the last injection, the mice were anaesthetized. The femoral vein and artery were exposed and cannulated in situ immediately after the hind limb was isolated by occlusion of the surrounding arteries as previously described (Pitchford et al, 2009; Pitchford et al, 2010). Perfusion buffer was infused via the arterial cannula and removed from the venous cannula using a Minipuls Peristaltic Pump (Anachem). The hind limb was initially infused with AMD3100 (0.1 mM) or vehicle for 10 minutes using an infusion/withdrawal pump (Harvard Instruments) and was further perfused for 50 minutes with perfusion buffer (Pitchford et al, 2010). The perfusate was collected over 60 minutes and then centrifuged and resuspended in DMEM (Gibco) +20% fetal bovine serum for enumeration of CFU-HPCs and CFU-Fs.
as §2

[5] = tested on: CFU-Fs (MSCs); assay: In situ perfusion of mouse hind limb, CFU-Fs in perfusate; format: in vivo, mice
Protocol: as §3
Harvested peripheral blood or perfusate was red blood cell-lysed and 1×10^6 cells were added to tissue culture-treated 6-well plates containing 3 ml of Mesencult™ (05502; StemCell Technologies) to select for CFU-Fs. Similarly, 1×10^6 bone marrow cells harvested by bone marrow flush of the hind limb femur were plated for CFU-Fs. Cultures were incubated at 37° C. and media was changed on day 7. Bone marrow-derived CFU-Fs were enumerated on day 13 and blood- and perfusate-derived CFU-Fs were enumerated on day 21. Blood derived-CFU-Fs were further expanded and assessed for mesenchymal lineage markers by flow cytometry and following CD45 depletion (flow cytometry sorting of CD45 negative for mesenchymal trilineage differentiation (Supplemental Experimental Procedures).

[6] = tested on: MSCs; details: G-CSF and/or the CXCR4 antagonist; cited from earlier work
[7] = tested on: HSPCs; details: mice; cited from earlier work
[8] = tested on: HSPCs; details: humans; cited from earlier work
[9] = tested on: free fatty acids; assay: Free fatty acid assay in blood plasma; format: in vivo, mice; details: pre-treatment 60 minutes prior to the b3 adrenergic agonist, 4 days
Protocol: as §1
Free fatty acid content in blood plasma was quantified using a serum/plasma fatty acid detection Kit (Zen Bio) and the assay was performed according to the manufacturers' instructions. Data are expressed as μM concentration of free fatty acids.

[10] = tested on: FFAs; details: infusion directly into the vasculature of the canine femur; cited from earlier work
[11] = tested on: CXCL12; details: in vivo; cited from earlier work
[12] = 3 days CB1 and CB2 agonists in combination, beta 3 agonist on the fourth day prior to CXCR4 antagonist
[13] = AMD3100 alone, 5 mg/kg i.p., blood 1 hour later
[14] = vehicle pre-treated mice, hind limb infused with CXCR4 antagonist for 10 min
[15] = acute treatment (2 h), alone or in combination with acute CXCR4 antagonist
[16] = pre-treated once daily for 4 days, then AMD3100, blood 1 hour later
[17] = four day pretreatment, b3 adrenergic agonist in combination with FAAH inhibitor

With `COc1ccc2cc([C@H](C)C(=O)O)ccc2c1` [Naproxen] the “effect on HSPC mobilization induced by 4 day beta 3 adrenergic agonist and CXCR4 antagonist” value (shortened to “effect on HSPC mobilization induced”) [1] was “significant increase in the mobilization of both HSPCs or CFU-Fs”.

In the case of `COc1ccc(C(=O)c2c(C)n(CCN3CCOCC3)c3cc(I)ccc23)cc1` [AM630], the “effect on HSPC mobilization induced” value [1] is reported as “significantly suppressed” and the “effect on CFU-F mobilization induced by 4 day beta 3 adrenergic agonist and CXCR4 antagonist” value (shortened to “effect on CFU-F mobilization induced”) ([2]; mouse, in vivo) is reported as “significantly suppressed”.

With `Cc1c(C(=O)NN2CCCCC2)nn(-c2ccc(Cl)cc2Cl)c1-c1ccc(I)cc1` [AM251] the “effect on HSPC mobilization induced” value [1] was “significantly suppressed”.

For `Cc1ccc2c(c1)Cc1c(C(=O)NN3CCCCC3)nn(-c3ccc(Cl)cc3Cl)c1-2` [GP1a, N-(Piperidin-1-yl)-1-(2,4-dichlorophenyl)-1,4-dihydro-6-methylindeno[1,2-c]pyrazole-3-carboxamide], the “level of HSPC mobilization” value [1] was “significantly less than that achieved using these agonists in combination”, the HSPC mobilization [1, 12] was “stem cells were mobilized” and the “priming of HSPCs for mobilization” value [1] was “not sufficient to prime MSCs or HSPCs for mobilization”. For the same molecule, the “priming of MSCs for mobilization” value [2] was “not sufficient to prime MSCs or HSPCs for mobilization”, the CFU-F mobilization ([2]; mouse, in vivo) was “stem cells were mobilized” and the “level of CFU-F mobilization” value ([2]; mouse, in vivo) was “significantly less than that achieved using these agonists in combination”.

For `c1cc(CN2CCCNCCNCCCNCC2)ccc1CN1CCCNCCNCCCNCC1` [AMD3100], the “mobilization of HSPCs into the blood” value [1, 13] was “stimulated mobilization of HSPCs into the blood”, the CFU-Fs in blood [2, 13] was “no colony forming units-fibroblasts (CFU-Fs; a measure of MSCs) were detectable” and the “mobilization of total white blood cells” value [3] was “significantly increased”. The “HPCs mobilized from the bone marrow” value [4, 14] was “HPCs but not MSCs were mobilized from the bone marrow”, the “MSCs mobilized from the bone marrow” value [5, 14] was “HPCs but not MSCs were mobilized from the bone marrow” and the “mobilisation of MSCs from the bone marrow into the blood” value [6] was “not effective”. The “circulating numbers of HSPCs” value [7] was “stimulates a rapid rise in circulating numbers of HSPCs” and the “circulating numbers of HSPCs” value [8] was “stimulates a rapid rise in circulating numbers of HSPCs”.

With `CCCCC/C=C\C/C=C\C/C=C\C/C=C\CCCC(=O)NCCCl` [ACEA, Arachidonyl-2-chloroethylamide] the “level of HSPC mobilization” value [1] was “significantly less than that achieved using these agonists in combination”, the HSPC mobilization [1, 12] was “stem cells were mobilized” and the “priming of HSPCs for mobilization” value [1] was “not sufficient to prime MSCs or HSPCs for mobilization”. For the same molecule, the “priming of MSCs for mobilization” value [2] was “not sufficient to prime MSCs or HSPCs for mobilization”, the CFU-F mobilization ([2]; mouse, in vivo) was “stem cells were mobilized” and the “level of CFU-F mobilization” value ([2]; mouse, in vivo) was “significantly less than that achieved using these agonists in combination”.

With `CCCCCCCCCCC[C@@H](C[C@@H]1OC(=O)[C@H]1CCCCCC)OC(=O)[C@H](CC(C)C)NC=O` [Orlistat] the “effect on HSPC mobilization induced” value [1] was “completely abrogated”, the “effect on CFU-F mobilization induced” value ([2]; inhibitor or antagonist given 60 minutes prior to BRL 37344, once daily for 4 days) was “completely abrogated” and the “effect on the b3 adrenergic agonist induced increase of FFA levels in plasma” value [9] was “attenuated”.

With `CC(C)(C)NCC(O)c1cc(Cl)c(N)c(Cl)c1` (centres unmarked) [Clenbuterol] the HSPC mobilization ([1]; once daily for 4 days, alone or in combination with the CXCR4 antagonist) was “did not stimulate HSPC or MSC mobilization” and the MSC mobilization ([2]; mouse, in vivo) was “did not stimulate HSPC or MSC mobilization”.

For `CC(C)NCC(O)c1ccc(O)c(O)c1` (centres unmarked) [isoproterenol], the “circulating numbers of HSPCs” value ([1]; 4 day pre-treatment alone) was “did not change circulating numbers of HSPCs or CFU-Fs”, the “mobilization of HSPCs” value [1, 15] was “did not enhance the mobilization of HSPCs above AMD3100 alone” and the “circulating HSPC numbers” value [1, 16] was “significantly elevated over treatment with the CXCR4 antagonist alone”. The “circulating numbers of CFU-Fs” value ([2]; 4 day pre-treatment alone) was “did not change circulating numbers of HSPCs or CFU-Fs”, the “CFU-Fs in the blood” value [2, 15] was “did not result in detectable numbers of CFU-Fs in the blood” and the “circulating CFU-Fs” value [2, 16] was “CFU-Fs were mobilized”. For the same molecule, the “release of FFAs into the femoral vein” value [10] was “release of FFAs into the femoral vein”.

In the case of `NC(=O)c1cccc(-c2cccc(OC(=O)NC3CCCCC3)c2)c1` [URB597], the “effect on HSPC mobilization induced” value [1] is reported as “significantly enhanced”, the “effect on CFU-F mobilization induced” value ([2]; mouse, in vivo) is reported as “significantly enhanced” and the “HPC egress from the bone marrow in response to infusion of the CXCR4 antagonist” value [4, 17] is reported as “significantly enhanced both HPC and MSC egress from the bone marrow”. The “MSC egress from the bone marrow in response to infusion of the CXCR4 antagonist” value [5, 17] was “significantly enhanced both HPC and MSC egress from the bone marrow”.

B1: G-CSF: cytokine, granulocyte colony stimulating factor; murine G-CSF (PeproTech) (protein, UniProt P09920 31-208, looked up)
Granulocyte …: VPLVTVSALPPSLPLPRSFLLKSLEQVRKIQASGSVLLEQLCATYKLCHPEELVLLGHSLGIPKASLSGCSSQALQQTQCLSQLHSGLCLYQGLLQALSGISPALAPTLDLLQLDVANFATTIWQQMENLGVAPTVQPTQSAMPAFTSAFQRRAGGVLAISYLQGFLETARLALHHLA
For B1, the “G-CSF-induced mobilization of haematopoietic progenitor cells” value ([1]; in the presence or absence of AM251 or AM630, 4 consecutive days) is listed as “Independent of Cannabinoid Receptor Signalling”, the “effect on β3-AR agonist/AMD3100 mobilisation of MSPCs” value ([2]; mouse, in vivo, ip) is listed as “impairs” and the “levels of CXCL12 in the bone marrow” value [11] is listed as “reducing levels of CXCL12 in the bone marrow”. The “mobilisation of MSCs from the bone marrow into the blood” value [6] was “not effective”.

Source: US20170355959A1, “METHODS FOR MOBILISING POPULATIONS OF STEM CELLS” (Imperial Innovations Limited, priority 2014, published 2017)
